Assay results published in US20240417437A1, “Linker Polypeptides” (Trutino Biosciences Inc., priority 2021, published 2024).
pKd: −log10 of the molar value. Blank lines part the entries; values can stand above or below the substance they belong to. Where no end group is shown, it is not given here. The star is where a group is joined. EDANS = O=S(=O)(O)c1cccc2c(NCCN*)cccc12

Key:
Collagen type I = Collagen type I (Homo sapiens, UniProt P02452+P08123); details: binds to Collagen type I; Note 1 of Table 2; cited from earlier work
Collagen type I, sequence (P02452 162-1218 limits assumed): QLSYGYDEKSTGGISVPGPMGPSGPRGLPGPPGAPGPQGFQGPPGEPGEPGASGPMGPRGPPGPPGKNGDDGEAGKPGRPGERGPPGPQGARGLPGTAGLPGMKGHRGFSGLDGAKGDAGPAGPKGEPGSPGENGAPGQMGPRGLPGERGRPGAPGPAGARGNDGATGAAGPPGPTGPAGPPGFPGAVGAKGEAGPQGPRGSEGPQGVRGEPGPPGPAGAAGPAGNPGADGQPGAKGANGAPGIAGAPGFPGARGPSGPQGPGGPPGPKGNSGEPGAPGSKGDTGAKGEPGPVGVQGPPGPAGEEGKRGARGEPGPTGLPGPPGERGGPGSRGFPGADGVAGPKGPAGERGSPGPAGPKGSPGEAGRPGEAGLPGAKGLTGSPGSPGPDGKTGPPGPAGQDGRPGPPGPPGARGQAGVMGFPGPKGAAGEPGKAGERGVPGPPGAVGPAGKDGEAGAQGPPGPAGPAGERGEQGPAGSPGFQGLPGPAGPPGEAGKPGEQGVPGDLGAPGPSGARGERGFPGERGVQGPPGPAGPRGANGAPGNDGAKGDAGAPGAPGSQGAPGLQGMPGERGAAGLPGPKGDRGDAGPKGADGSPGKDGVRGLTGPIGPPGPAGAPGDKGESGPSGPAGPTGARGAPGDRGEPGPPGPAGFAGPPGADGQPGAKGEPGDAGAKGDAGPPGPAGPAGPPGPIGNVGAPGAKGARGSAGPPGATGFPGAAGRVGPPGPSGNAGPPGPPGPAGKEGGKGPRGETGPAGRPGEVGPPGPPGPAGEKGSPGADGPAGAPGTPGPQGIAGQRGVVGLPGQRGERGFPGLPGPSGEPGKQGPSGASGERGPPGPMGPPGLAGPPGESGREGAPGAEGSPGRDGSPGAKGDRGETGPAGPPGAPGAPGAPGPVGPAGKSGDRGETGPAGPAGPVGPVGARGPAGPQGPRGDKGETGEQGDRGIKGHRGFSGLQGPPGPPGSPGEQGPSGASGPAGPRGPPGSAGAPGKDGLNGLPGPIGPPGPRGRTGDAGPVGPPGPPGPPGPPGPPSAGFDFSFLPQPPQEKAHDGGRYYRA
Collagen type I, sequence (P08123 80-1119 limits assumed): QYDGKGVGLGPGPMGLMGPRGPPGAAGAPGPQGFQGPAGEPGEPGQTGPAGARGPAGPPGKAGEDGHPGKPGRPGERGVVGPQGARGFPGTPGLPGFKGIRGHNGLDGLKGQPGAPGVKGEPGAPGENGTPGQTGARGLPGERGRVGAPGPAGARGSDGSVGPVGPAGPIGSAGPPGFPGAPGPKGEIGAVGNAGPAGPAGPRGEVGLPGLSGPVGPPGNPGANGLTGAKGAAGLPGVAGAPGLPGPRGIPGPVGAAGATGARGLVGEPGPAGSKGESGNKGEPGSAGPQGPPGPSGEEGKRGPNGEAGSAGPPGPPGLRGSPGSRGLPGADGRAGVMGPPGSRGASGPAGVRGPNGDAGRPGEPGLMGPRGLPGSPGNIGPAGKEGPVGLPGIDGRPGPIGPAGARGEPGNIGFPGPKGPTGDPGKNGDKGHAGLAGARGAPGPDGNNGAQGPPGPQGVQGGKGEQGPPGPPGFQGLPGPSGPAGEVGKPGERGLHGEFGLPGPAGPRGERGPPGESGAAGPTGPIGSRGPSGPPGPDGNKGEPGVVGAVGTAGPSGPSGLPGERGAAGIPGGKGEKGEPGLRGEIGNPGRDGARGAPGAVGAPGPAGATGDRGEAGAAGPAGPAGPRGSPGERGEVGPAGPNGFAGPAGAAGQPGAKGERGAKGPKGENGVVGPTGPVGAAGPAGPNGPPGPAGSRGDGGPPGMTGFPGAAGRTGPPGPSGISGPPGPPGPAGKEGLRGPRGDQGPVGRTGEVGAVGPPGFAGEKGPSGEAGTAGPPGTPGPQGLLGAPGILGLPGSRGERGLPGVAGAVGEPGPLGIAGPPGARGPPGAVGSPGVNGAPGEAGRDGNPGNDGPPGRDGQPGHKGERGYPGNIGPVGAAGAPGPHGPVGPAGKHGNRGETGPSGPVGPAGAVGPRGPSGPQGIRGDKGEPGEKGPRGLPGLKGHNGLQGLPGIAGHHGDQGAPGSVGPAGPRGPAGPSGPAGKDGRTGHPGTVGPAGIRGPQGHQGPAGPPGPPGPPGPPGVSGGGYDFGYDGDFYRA

[1] = pH-sensitive targeting sequences; cited from earlier work
fibronectin [2] = assay: EDANS linker peptide binding to fibronectin-coated magnetic beads; details: peptides 20 μM
Procedure: (§1) A series of peptides comprising an MMP cleavable site with or without the addition of a targeting sequence were synthesized and conjugated to the fluorophore EDANS (5-((2-Aminoethyl)amino)naphthalene-1-sulfonic acid) (custom synthesis, ThermoFisher). […] These peptides were then tested for their ability to bind ECM proteins such as heparin, fibronectin and collagen which are found in abundance in tumor stroma.
(§2) For fibronectin and collagen binding peptide assays, streptavidin coupled magnetic beads (Mag Sepharose, Cytiva and Dynabeads, ThermoFisher, respectively) were first incubated with biotin-labelled fibronectin (Cytoskeleton) or biotin-labelled collagen IV (Prospec) for 1 hour with gentle shaking. Following multiple washes, the ECM-coated beads were then incubated with Edans Peptides (20 μM) for 2 hours at room temperature with shaking in neutral or acidic binding buffer. Beads were then washed and resuspended in 100 μL of binding buffer in a black 96-well plate. Peptide binding was quantified by measuring the fluorescence of samples using excitation/emission spectra of EDANS (Ex 340/Em 490).

fibronectin [3] = biological target: fibronectin (Homo sapiens, UniProt P02751); details: derived from thrombospondin, cited from earlier work; for Note 1: affinity (binds to Fibronectin): pH-sensitive targeting sequences
fibronectin (Homo sapiens, UniProt P02751), sequence (P02751 32-2477, species assumed): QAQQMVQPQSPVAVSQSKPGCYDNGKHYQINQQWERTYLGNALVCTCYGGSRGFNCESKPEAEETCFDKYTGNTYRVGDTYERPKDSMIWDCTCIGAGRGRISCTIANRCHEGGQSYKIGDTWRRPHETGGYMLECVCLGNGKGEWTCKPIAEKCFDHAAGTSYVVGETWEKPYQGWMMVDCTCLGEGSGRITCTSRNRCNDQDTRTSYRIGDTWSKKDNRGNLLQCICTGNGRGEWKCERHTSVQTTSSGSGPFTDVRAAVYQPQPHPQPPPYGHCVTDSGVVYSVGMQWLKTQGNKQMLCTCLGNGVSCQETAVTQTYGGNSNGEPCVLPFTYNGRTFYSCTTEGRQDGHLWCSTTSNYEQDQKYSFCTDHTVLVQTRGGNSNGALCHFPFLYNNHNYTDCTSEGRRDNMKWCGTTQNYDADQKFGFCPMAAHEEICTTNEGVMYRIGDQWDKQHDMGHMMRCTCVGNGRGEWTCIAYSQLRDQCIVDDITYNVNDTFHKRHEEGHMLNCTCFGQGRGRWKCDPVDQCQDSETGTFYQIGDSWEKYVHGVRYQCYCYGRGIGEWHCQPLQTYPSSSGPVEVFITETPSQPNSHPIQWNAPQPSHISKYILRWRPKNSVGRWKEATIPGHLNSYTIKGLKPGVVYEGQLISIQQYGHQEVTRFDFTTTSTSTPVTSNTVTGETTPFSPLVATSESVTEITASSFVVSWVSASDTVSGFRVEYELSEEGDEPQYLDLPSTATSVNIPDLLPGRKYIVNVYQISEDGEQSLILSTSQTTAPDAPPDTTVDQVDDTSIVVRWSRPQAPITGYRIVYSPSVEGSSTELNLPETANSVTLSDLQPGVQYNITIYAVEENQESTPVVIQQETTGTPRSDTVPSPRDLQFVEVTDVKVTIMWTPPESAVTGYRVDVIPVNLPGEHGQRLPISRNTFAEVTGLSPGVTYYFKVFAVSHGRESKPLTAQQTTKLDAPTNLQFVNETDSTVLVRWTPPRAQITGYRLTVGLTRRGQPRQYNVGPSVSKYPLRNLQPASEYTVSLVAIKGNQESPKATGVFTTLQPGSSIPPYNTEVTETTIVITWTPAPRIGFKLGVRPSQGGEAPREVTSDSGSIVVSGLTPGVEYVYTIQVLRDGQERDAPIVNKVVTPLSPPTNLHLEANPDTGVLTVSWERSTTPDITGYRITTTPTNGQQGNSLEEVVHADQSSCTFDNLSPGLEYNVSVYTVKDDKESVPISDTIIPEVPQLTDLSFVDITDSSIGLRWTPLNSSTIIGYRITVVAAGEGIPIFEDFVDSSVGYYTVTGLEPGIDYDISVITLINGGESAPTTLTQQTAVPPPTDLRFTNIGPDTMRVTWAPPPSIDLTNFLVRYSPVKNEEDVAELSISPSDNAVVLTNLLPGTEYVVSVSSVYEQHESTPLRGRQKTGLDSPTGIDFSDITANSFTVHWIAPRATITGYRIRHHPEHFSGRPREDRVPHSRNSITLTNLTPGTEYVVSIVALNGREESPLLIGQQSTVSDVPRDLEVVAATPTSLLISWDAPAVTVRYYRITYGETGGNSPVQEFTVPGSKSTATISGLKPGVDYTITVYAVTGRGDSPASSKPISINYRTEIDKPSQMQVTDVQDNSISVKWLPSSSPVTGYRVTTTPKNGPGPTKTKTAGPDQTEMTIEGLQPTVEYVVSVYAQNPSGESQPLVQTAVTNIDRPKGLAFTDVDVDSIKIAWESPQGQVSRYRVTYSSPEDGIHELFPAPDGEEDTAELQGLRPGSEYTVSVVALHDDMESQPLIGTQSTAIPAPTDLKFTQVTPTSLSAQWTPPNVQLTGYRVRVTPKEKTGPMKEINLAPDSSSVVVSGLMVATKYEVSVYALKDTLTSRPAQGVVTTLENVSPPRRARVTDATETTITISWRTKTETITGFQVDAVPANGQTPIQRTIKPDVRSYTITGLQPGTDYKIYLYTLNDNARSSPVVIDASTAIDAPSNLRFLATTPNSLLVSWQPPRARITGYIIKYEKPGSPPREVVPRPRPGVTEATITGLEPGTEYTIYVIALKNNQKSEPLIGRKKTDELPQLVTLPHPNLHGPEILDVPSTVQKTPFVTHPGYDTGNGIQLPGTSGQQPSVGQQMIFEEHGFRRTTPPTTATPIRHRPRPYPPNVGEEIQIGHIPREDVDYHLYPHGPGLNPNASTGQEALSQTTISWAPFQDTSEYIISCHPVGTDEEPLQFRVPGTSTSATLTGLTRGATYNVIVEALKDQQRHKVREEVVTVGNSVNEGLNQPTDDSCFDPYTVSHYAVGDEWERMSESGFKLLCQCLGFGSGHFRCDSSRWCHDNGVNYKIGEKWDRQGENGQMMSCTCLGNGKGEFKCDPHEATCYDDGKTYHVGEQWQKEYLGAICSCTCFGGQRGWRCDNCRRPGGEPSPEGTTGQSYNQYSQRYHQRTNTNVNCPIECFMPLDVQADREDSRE

[4] = assay type: binding; details: compared with IL-15Rα-IL-15 fusion protein
Procedure: 96-well plates were coated with 10 μg/mL of Heparin-BSA conjugate (provided by Dr. Mueller, Boerhinger Ingelheim) or control BSA for 18-22 hours at room temperature on shaker (350 rpm). After washing, wells are blocked with 2% milk powder in PBS-0.05% Tween 20 or PBS-0.05% Tween 20/1% BSA for 90 minutes. The fusion proteins were then titrated in either 2% milk powder in PBS-0.05% Tween 20 or 1% BSA/PBS-0.05% Tween 20, pH 7.5 and/or pH 6, and added for 2 hours at room temperature with shaking. After washing, an anti-mouse IL-2 biotin-labelled detection antibody (JES6-5H4, ThermoFisher), anti-6×-His Tag HRP conjugate antibody (Invitrogen, 1 mg/mL, cat #MA1-21315-HRP), or anti-human IgG HRP conjugate antibody (SouthernBiotech) was added, and binding was detected using Ultra Streptavidin HRP (ThermoFisher). The plate was developed by adding the chromogenic tetramethylbenzidine substrate (Ultra TMB, ThermoFisher). The reaction was stopped by addition of 0.5 M H2SO4, and the absorbance was read at 450-650 nm. […] Moreover, when the same pH-dependent heparin binding motif was inserted into different locations of IL-2 fusion proteins, all resulting proteins bound heparin at pH 6 with similar high affinities (FIGS. 4F and 4G). Likewise, similar binding affinities were observed when another heparin targeting sequence was engineered into different sites of IL-2 fusion proteins (FIGS. 4H-4I). […]

[5] = system: MC38 colorectal cancer cells; assay: MC38 colorectal cancer tumor growth inhibition study; assay type: in vivo, C57BL/6 mice; details: low dose (1 mg/kg IP BIW)
Procedure: C57BL/6 mice were subcutaneously inoculated with MC38 colorectal cancer cells. When the average tumor volume reached 70-90 mm^3, animals were randomized into 10 groups based on tumor volumes (n 7 or 6 mice per treatment group).
Tumor volumes were measured twice a week for the duration of the study.

collagen IV = biological target: T1, collagen IV (Homo sapiens, UniProt P02462+P08572); assay: EDANS linker peptide binding to collagen IV-coated magnetic beads; details: peptides 20 μM, 2 hours
T1 construct: purchased Prospec
Procedure: as §1, §2

[6] = system: Heparan sulfate proteoglycans; details: DTx protein derived sequences; cited from earlier work

Substance: 195 (CPKESCNLFVLKD; Synthetic: Collagen type I) [Construct 195]
pKd (Collagen type I): 6.17

Substance: 642 (KHAHLKKQVSDHIAVY; Synthetic: Heparin; binds to heparin at low pH (high affinity)) [Construct 642]
Note 1: binds to heparin at low pH (affinity) [1]: binds to heparin at low pH (high affinity)

Substance: 644 (KHAHL; Synthetic: Heparin; binds to heparin at low pH (lower affinity)) [Construct 644]
Note 1: binds to heparin at low pH (affinity) [1]: binds to heparin at low pH (lower affinity)

peptide binding to fibronectin at pH 6 vs. pH 7.5 (fibronectin [2]): enhanced binding at pH 6
peptide binding to fibronectin (EDANS fluorescence) (fibronectin [2]; 2 hours): able to bind fibronectin
Substance: peptide 13: EDANS-conjugated GGGWSHWGPLGVRG-* (SEQ ID NO: 671); pH dependent fibronectin (GGGWSHWGPLGVRG-{EDANS})

Substance: 655 (KRFKQDGGWSHWSP; Synthetic: Fibronectin; derived from thrombospondin (medium affinity)) [Construct 655]
Note 1: affinity (binds to Fibronectin) (fibronectin [3]): derived from thrombospondin (medium affinity)

Substance: 645 (TTEPSEEHNHHK; Synthetic: Heparin; binds to heparin at low pH (lower affinity)) [Construct 645]
Note 1: binds to heparin at low pH (affinity) [1]: binds to heparin at low pH (lower affinity)

heparin binding of IL-15 linker polypeptide fusion proteins [4]: recovered
Substance: Construct WWW: huIL15Ra(1-77)-linker-huIL15-(SG3)-GPLGVRG-gsVRIQRKKEKMKET-3x(G4S)-IL2Rb(1-214)-6xHis

Substance: 191 (MIVIELGTNPLKSSGIENGAFQGMKK; Synthetic: Collagen type I) [Construct 191]
pKd (Collagen type I): 6.40

Substance: 648 (KVEHRVKKRPPTWRHNVRAKYT; Synthetic: Heparin; binds to heparin at low pH) [Construct 648]
Note 1: binds to heparin at low pH (affinity) [1]: binds to heparin at low pH

Substance: 646 (TTEPSEEHNHHKHHDK; Synthetic: Heparin; binds to heparin at low pH (lower affinity)) [Construct 646]
Note 1: binds to heparin at low pH (affinity) [1]: binds to heparin at low pH (lower affinity)

Substance: 189 (RRANAALKAGELYKSILYGC; Synthetic: Collagen type I) [Construct 189]
pKd (Collagen type I): 6.07

Substance: Construct NNN: huIL2(C125S)-SGGKLWVLPK-MMPcs1-2x(G4S)-huIL2Ra(1-219;M25I)-GSGGGG-huIgG1(LALA); col IV
efficacy (TGI) in low dose treatment groups [5]: superior efficacy over parental non-targeting constructs

Substance: 649 (GGKVEHRVKKRPPTWRHNVRAKYT; Synthetic: Heparin; binds to heparin at low pH) [Construct 649]
Note 1: binds to heparin at low pH (affinity) [1]: binds to heparin at low pH

Substance: 647 (HKGQHR; Synthetic: Heparin; binds to heparin at low pH (lower affinity)) [Construct 647]
Note 1: binds to heparin at low pH (affinity) [1]: binds to heparin at low pH (lower affinity)

heparin binding of IL-15 linker polypeptide fusion proteins [4]: lost
Substance: Construct VVV: huIL15Ra(1-77)-linker-huIL15-(SG3)-GPLGVRG-4x(G4S)-IL2Rb(1-214)-6xHis; no TME

Substance: 653 (GGWSHW; Synthetic: Fibronectin; derived from thrombospondin (highest affinity)) [Construct 653]
Note 2: pH dependence of binding to Fibronectin (fibronectin [3]): binds better at lower pH
Note 1: affinity (binds to Fibronectin) (fibronectin [3]): (highest affinity)

Substance: 190 (RRANAALKAGELYKCILYGC; Synthetic: Collagen type I) [Construct 190]
pKd (Collagen type I): 8.00

Substance: 656 (GGWSHWSPWSS; Synthetic: Fibronectin; derived from thrombospondin (medium affinity)) [Construct 656]
Note 1: affinity (binds to Fibronectin) (fibronectin [3]): derived from thrombospondin (medium affinity)

peptide binding to collagen IV (EDANS fluorescence) (collagen IV): strongly bound
Substance: peptide 14: EDANS-conjugated KLWVLPKGPLGVRG-* (SEQ ID NO: 672); Collagen IV (KLWVLPKGPLGVRG-{EDANS})

Substance: 192 (LRELHLNNN; Synthetic: Collagen type I) [Construct 192]
pKd (Collagen type I): 6.77

Substance: 643 (TTEPSEEHNHHK; Synthetic: Heparin; binds to heparin at low pH (low affinity)) [Construct 643]
Note 1: binds to heparin at low pH (affinity) [1]: binds to heparin at low pH (low affinity)

Substance: 639 (NGRKIRMRCRAIDGD; Synthetic: Heparan sulfate proteoglycans ; binds to HSGP with high affinity (DTx protein)) [Construct 639]
Note 1: binds to HSGP, affinity [6]: binds to HSGP with high affinity (DTx protein)

peptide binding to collagen IV (EDANS fluorescence) (collagen IV): bound to a lesser extent
Substance: peptide 15: EDANS-conjugated GGGSGLHERHLNNN-* (SEQ ID NO: 673); Collagen I (GGGSGLHERHLNNN-{EDANS})

Substance: 640 (DVIRDKTKTKIESLK; Synthetic: Heparan sulfate proteoglycans ; binds to HSGP with low affinity (DTx protein)) [Construct 640]
Note 1: binds to HSGP, affinity [6]: binds to HSGP with low affinity (DTx protein)

Substance: 197 (HVWMQAPGGGK; Synthetic: Collagen type I, H-v-F/W-Q/ M-Q-P/A-P/K motif) [Construct 197]
pKd (Collagen type I): 4.21

Substance: 650 (KKRPPTWRHNV; Synthetic: Heparin; binds to heparin at low pH) [Construct 650]
Note 1: binds to heparin at low pH (affinity) [1]: binds to heparin at low pH

Substance: 194 (TKKTLRT; Synthetic: Collagen type I) [Construct 194]
pKd (Collagen type I): ≥ 4.00
